Results taken from patent publication US20020187944A1, “Inhibition of human immunodeficiency virus reverse transcriptase” (priority 2001, published 2002).

Experiments:
[1] = gastric acid; stated without a test; cited from earlier work
[2] = target: DNA-dependent RNA polymerase from E. coli (Escherichia coli, UniProt P0A8T7+P0A8V2); assay: DNA-dependent RNA polymerase reaction, 3H-UTP incorporation; type: biochemical
Description: (§1) Inhibition of HIV reverse transcriptase (RT) was studied in a one milliliter reaction mixture containing 12.5 μmol Tris-HCl (pH 8.3), 3 μmol MgCl2, 10 μmol KCl, 2.5 μmol dithiothreitol, 0.04 μmol of each dNTP, 1 μCi ^3H-TTP (50 Ci/mmol), 10 μl of DMSO containing 0-320 μg/ml of 9-O-methyl oxime erythromycin A (EMO), and 0.01 μg HIV-1 reverse transcriptase. DNA template (0.01 μg) from calf thymus was used as the substrate in the reaction. After 60 minutes incubation at 37° C., samples from the reaction were pipetted on 3 MM filter paper discs (Whatman), which were washed 5 times in cold trichloroacetic acid (5%) containing sodium pyrophosphate (0.01 M). After drying, the discs were counted in a toluene scintillation solution using a Beckman scintillation spectrometer. Reactions with DNA-dependent DNA polymerase (DNA pol I, GibcoBRL) or DNA-dependent RNA polymerase from E. coli were carried out as described above, except that ^3H-UTP replaced ^3H-TTP where appropriate.

[3] = target: T1, DNA-dependent DNA polymerase (DNA pol I, GibcoBRL) (Escherichia coli, UniProt P00582); assay: DNA-dependent DNA polymerase reaction, radiolabel incorporation; type: biochemical, E. coli
T1 construct: purchased GibcoBRL
Description: as §1

[4] = target: T2, HIV-1 reverse transcriptase (Human immunodeficiency virus type 1 group M subtype B, UniProt P04585); assay: Inhibition of HIV reverse transcriptase, 3H-TTP incorporation on calf thymus DNA template; type: biochemical; conditions: for HIV RT Radioactivity: 60 minutes at 37° C.
T2 construct: 0.01 μg HIV-1 reverse transcriptase
Description: as §1

T1 sequence (P00582 whole entry): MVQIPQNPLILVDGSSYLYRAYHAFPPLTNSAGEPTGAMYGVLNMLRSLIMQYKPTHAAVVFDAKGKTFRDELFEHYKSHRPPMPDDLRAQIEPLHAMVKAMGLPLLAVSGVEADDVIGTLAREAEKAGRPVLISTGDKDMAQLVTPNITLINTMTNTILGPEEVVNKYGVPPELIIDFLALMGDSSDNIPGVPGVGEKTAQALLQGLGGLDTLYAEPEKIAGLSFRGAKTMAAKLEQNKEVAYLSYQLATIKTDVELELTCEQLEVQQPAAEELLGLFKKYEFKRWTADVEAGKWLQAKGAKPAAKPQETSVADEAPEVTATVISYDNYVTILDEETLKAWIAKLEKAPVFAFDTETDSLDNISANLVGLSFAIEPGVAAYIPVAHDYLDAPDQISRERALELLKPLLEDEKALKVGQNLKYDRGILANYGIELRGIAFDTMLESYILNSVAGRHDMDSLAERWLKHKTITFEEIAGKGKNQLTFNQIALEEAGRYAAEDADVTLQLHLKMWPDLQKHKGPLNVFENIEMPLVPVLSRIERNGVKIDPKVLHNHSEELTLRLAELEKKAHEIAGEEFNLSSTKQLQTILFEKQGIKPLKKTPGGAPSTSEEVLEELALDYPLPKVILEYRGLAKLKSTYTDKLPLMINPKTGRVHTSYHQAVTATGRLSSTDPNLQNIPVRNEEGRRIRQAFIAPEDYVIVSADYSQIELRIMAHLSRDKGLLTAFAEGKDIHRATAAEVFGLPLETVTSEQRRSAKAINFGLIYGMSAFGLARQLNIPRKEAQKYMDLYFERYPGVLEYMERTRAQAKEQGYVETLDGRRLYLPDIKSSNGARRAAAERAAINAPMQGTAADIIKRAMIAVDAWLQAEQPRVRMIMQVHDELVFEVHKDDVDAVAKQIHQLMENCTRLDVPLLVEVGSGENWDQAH
Sequence of DNA-dependent RNA polymerase from E. coli (P0A8V2 whole entry): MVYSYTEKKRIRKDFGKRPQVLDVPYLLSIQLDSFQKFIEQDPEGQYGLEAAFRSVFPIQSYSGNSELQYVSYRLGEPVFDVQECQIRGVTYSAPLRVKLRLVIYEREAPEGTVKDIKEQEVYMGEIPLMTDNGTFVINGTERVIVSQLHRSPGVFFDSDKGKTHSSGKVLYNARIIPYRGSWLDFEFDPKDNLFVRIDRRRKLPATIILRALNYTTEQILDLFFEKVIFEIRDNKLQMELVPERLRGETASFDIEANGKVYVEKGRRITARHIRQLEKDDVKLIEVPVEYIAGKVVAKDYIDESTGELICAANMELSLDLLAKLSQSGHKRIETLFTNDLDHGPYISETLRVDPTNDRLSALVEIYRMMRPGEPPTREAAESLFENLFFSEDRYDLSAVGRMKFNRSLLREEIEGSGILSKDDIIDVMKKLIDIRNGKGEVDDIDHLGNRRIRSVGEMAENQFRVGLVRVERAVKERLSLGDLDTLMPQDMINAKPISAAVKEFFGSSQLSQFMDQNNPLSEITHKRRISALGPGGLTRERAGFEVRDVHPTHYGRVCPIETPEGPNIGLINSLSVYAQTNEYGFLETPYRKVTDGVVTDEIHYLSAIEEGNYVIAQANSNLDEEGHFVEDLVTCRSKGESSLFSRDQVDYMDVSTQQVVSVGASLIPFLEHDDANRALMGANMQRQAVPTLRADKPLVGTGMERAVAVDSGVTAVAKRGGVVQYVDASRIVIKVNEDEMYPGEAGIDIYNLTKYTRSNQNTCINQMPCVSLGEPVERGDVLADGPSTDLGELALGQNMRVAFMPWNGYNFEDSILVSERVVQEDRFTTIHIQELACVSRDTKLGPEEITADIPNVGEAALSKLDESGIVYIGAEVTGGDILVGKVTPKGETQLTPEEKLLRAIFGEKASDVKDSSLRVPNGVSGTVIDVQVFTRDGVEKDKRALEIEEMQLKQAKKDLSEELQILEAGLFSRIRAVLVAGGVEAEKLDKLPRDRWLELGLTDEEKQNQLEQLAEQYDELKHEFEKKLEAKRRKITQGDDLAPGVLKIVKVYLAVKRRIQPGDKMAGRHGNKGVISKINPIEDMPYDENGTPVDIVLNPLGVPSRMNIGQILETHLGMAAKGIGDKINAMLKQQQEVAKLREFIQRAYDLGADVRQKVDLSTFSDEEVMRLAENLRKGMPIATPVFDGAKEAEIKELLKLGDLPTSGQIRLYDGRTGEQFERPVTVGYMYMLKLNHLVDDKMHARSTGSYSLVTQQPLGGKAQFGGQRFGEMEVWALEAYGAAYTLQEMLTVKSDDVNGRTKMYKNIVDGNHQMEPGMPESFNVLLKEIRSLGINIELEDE
Sequence of DNA-dependent RNA polymerase from E. coli (P0A7Z4 whole entry, further chain): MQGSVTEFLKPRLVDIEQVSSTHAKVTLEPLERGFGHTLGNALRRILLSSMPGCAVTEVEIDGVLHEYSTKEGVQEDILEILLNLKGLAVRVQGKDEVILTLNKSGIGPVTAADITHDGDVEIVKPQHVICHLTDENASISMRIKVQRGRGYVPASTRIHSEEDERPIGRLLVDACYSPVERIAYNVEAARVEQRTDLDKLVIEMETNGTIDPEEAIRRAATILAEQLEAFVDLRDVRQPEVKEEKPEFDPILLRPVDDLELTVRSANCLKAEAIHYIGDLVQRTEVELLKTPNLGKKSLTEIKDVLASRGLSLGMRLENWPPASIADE
Sequence of DNA-dependent RNA polymerase from E. coli (P0A800 whole entry, further chain): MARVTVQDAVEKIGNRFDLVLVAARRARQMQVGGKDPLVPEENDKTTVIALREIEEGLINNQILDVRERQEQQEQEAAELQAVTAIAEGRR
Sequence of DNA-dependent RNA polymerase from E. coli (P0A8T7 whole entry): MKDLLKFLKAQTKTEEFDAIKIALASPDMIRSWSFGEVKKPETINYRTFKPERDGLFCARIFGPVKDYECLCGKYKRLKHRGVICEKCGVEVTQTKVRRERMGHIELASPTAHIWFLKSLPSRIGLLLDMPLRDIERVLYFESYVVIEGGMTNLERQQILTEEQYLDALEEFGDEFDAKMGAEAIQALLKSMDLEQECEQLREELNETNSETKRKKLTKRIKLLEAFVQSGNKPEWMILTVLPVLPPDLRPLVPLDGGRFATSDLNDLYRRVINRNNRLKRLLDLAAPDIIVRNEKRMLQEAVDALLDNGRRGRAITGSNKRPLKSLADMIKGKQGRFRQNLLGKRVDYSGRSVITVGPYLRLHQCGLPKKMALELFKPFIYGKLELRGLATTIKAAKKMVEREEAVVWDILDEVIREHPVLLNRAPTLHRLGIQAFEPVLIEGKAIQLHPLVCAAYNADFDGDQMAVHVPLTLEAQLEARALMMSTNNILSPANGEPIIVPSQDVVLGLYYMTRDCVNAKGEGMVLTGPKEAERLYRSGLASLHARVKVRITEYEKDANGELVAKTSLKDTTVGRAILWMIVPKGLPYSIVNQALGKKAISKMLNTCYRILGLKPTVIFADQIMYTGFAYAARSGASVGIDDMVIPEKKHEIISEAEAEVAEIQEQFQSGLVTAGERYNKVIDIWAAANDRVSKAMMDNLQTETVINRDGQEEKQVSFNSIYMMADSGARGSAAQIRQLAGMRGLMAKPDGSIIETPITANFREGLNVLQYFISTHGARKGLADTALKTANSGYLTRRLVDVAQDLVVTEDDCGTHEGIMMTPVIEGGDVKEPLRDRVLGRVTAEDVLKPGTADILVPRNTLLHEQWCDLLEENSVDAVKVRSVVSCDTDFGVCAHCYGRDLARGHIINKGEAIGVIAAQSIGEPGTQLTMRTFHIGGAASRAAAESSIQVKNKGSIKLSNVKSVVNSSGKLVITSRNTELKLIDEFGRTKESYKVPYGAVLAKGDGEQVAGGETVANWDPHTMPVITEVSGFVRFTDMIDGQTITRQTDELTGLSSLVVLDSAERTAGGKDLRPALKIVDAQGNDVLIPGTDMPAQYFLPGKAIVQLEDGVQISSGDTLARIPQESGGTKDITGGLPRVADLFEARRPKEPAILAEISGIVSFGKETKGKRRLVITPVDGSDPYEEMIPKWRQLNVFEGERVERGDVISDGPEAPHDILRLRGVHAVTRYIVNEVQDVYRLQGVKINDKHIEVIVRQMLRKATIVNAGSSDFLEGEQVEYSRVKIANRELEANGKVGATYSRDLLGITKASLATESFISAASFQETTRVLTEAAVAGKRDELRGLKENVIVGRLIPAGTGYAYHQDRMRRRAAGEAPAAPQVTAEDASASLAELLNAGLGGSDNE

## CC[C@H]1OC(=O)[C@H](C)[C@@H](O[C@H]2C[C@@](C)(OC)[C@@H](O)[C@H](C)O2)[C@H](C)[C@@H](O[C@@H]2O[C@H](C)C[C@H](N(C)C)[C@H]2O)[C@](C)(O)C[C@@H](C)C(=O)[C@H](C)[C@@H](O)[C@]1(C)O [Erythromycin A, erythromycin A]
[1]
  acid stability: acid labile

## CC[C@H]1OC(=O)[C@H](C)[C@@H](O[C@H]2C[C@@](C)(OC)[C@@H](O)[C@H](C)O2)[C@H](C)[C@@H](O[C@@H]2O[C@H](C)C[C@H](N(C)C)[C@H]2O)[C@](C)(O)C[C@@H](C)/C(=N\OC)[C@H](C)[C@@H](O)[C@]1(C)O [EMO, 9-O-methyl oxime erythromycin A]
[2]; [EMO] 80 μg/ml
  DNA-dependent RNA polymerase % Inhibition: −0.2%
  DNA-dependent RNA polymerase Radioactivity: 33,000 cpm
[2]; [EMO] 160 μg/ml
  DNA-dependent RNA polymerase % Inhibition: −1%
  DNA-dependent RNA polymerase Radioactivity: 32,800 cpm
[2]; [EMO] 320 μg/ml
  DNA-dependent RNA polymerase % Inhibition: 0.5%
  DNA-dependent RNA polymerase Radioactivity: 32,400 cpm
[3]; [EMO] 80 μg/ml
  DNA-dependent DNA polymerase % Inhibition: −2%
  DNA-dependent DNA polymerase Radioactivity: 12,800 cpm
[3]; [EMO] 160 μg/ml
  DNA-dependent DNA polymerase % Inhibition: 1%
  DNA-dependent DNA polymerase Radioactivity: 12,400 cpm
[3]; [EMO] 320 μg/ml
  DNA-dependent DNA polymerase % Inhibition: 0%
  DNA-dependent DNA polymerase Radioactivity: 12,600 cpm
[4]; [EMO] 20 μg/ml
  HIV RT % Inhibition: 0.8%
  HIV RT Radioactivity: 8490 cpm
[4]; [EMO] 40 μg/ml
  HIV RT % Inhibition: −0.5%
  HIV RT Radioactivity: 8600 cpm
[4]; [EMO] 80 μg/ml
  HIV RT % Inhibition: 20%
  HIV RT Radioactivity: 6850 cpm
[4]; [EMO] 160 μg/ml
  HIV RT % Inhibition: 81%
  HIV RT Radioactivity: 1625 cpm
[4]; [EMO] 320 μg/ml
  HIV RT % Inhibition: 85%
  HIV RT Radioactivity: 1287 cpm
